Assay results from patent publication US9776979B2, “EBI2 modulators” (Sanford-Burnham Medical Research Institute, priority 2013, dated 2017).

Biological target: EBI2 (Homo sapiens, UniProt P32249)
Test: Cell-based luminescent assay (EBI2 modulation)
Conditions: cell-based luminescence; 7a,25-OHC final assay concentration 80 nM; 60 minutes incubation; read-out: IC50
In short: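 Cells plated overnight at 37° C, then exposed to compound at 4-5 uM final with 80 nM 7a,25-OHC agonist for 60 min at 37° C. Luminescence read after 60 min detection at 25° C in the dark; values normalized to neutral and stimulator controls and plate-pattern corrected.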

Sequence of EBI2 (P32249 whole entry): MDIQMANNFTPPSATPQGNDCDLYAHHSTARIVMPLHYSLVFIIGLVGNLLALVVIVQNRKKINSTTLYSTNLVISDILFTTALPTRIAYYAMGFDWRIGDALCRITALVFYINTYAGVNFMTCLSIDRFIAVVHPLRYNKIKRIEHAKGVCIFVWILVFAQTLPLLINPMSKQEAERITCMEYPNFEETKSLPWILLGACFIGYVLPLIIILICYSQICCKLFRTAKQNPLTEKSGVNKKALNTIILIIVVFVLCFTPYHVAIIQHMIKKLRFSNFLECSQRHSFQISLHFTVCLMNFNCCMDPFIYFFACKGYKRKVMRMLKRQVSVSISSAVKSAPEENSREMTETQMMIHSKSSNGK

| Structure (SMILES) | IC50 [nM] |
| --- | --- |
| O=C(/C=C/c1ccc(Br)cc1)N1CCN(Cc2ccc(Cl)cc2C(F)(F)F)CC1 [Compound C91, (2E)-3-(4-bromophenyl)-1-(4-{[4-chloro-2-(trifluoromethyl)phenyl]methyl}piperazinyl)prop-2-en-1-one] | < 100 |
| O=C(C#Cc1cccc(Cl)c1)N1CCN(C(c2ccccc2)c2ccccc2)CC1 [Compound C92, 1-[4-(diphenylmethyl)piperazinyl]-3-(3-chlorophenyl)prop-2-yn-1-one] | < 100 |
| O=C(/C=C/c1ccc(F)cc1)N1CCN(S(=O)(=O)/C=C/c2ccccc2)CC1 [Compound C95] | < 100 |
| O=C(/C=C/c1ccc(F)cc1)N1CCN(S(=O)(=O)c2ccc(Cl)cc2)CC1 [Compound C96, (2E)-1-{4-[(4-chlorophenyl)sulfonyl]piperazinyl}-3-(4-fluorophenyl)prop-2-en-1-one] | < 100 |
| COc1ccc2[nH]c(C(=O)N3CCN(C(c4ccccc4)c4ccccc4)CC3)cc2c1 [Compound C97, 4-(diphenylmethyl)piperazinyl 5-methoxyindol-2-yl ketone] | < 100 |
| CCCCC(=O)N1CCN(C(=O)/C=C/c2ccc(Br)cc2)CC1 [Compound C98, (2E)-3-(4-bromophenyl)-1-(4-pentanoylpiperazinyl)prop-2-en-1-one] | < 100 |
| O=C(/C=C/c1ccccc1)N1CCN(C(=O)/C=C/c2ccccc2)CC1 [Compound C99, (2E)-1-[4-((2E)-3-phenylprop-2-enoyl)piperazinyl]-3-phenylprop-2-en-1-one] | < 100 |
| O=C(/C=C/c1ccc(F)cc1)N1CCN(S(=O)(=O)c2ccccc2Br)CC1 [Compound C100, (2E)-1-{4-[(2-bromophenyl)sulfonyl]piperazinyl}-3-(4-fluorophenyl)prop-2-en-1-one] | < 100 |
| N#Cc1ccc(C(=O)N2CCN(C(=O)c3cc4cc(C(F)(F)F)ccc4[nH]3)CC2)cc1 [Compound C102, 4-[(4-{[5-(trifluoromethyl)indol-2-yl]carbonyl}piperazinyl)carbonyl]benzenecarbonitrile] | < 100 |
| CC(C)c1ccc(CN2CCN(C(=O)/C=C/c3ccc(Br)cc3)CC2)cc1 [Compound C103, (2E)-3-(4-bromophenyl)-1-(4-{[4-(methylethyl)phenyl]methyl}piperazinyl)prop-2-en-1-one] | < 100 |
| O=C(c1cc2ccc(Cl)cc2[nH]1)N1CCN(C(c2ccccc2)c2ccccc2)CC1 [Compound C104, 4-(diphenylmethyl)piperazinyl 6-chloroindol-2-yl ketone] | < 100 |
| Cc1ccc2c(c1)cc(C(=O)N1CCN(C(c3ccccc3)c3ccccc3)CC1)n2C [Compound C105, 1,5-dimethylindol-2-yl 4-(diphenylmethyl)piperazinyl ketone] | < 100 |
| O=C(/C=C/c1ccc(F)c(F)c1)N1CCN(C(c2ccccc2)c2ccccc2)CC1 [Compound C106, (2E)-3-(3,4-difluorophenyl)-1-[4-(diphenylmethyl)piperazinyl]prop-2-en-1-one] | < 100 |
| Cc1cc(C)cc(CN2CCN(C(=O)/C=C/c3ccc(Br)cc3)CC2)c1 [Compound C109, (2E)-1-{4-[(3,5-dimethylphenyl)methyl]piperazinyl}-3-(4-bromophenyl)prop-2-en-1-one] | < 100 |
| O=C(c1ccc2ncccc2c1)N1CCN(C(c2ccccc2)c2ccccc2)CC1 [Compound C110, 4-(diphenylmethyl)piperazinyl 6-quinolyl ketone] | < 100 |
| Cc1ccc2[nH]c(C(=O)N3CCN(Cc4ccc5c(c4)OCO5)CC3)cc2c1 [Compound C111, 4-(2H-benzo[d]1,3-dioxolan-5-ylmethyl)piperazinyl 5-methylindol-2-yl ketone] | < 100 |

| Structure (SMILES) | IC50 [nM] |
| --- | --- |
| O=C(C#Cc1ccc2c(c1)OCO2)C1CCN(C(=O)c2ccc(F)cc2)CC1 [Compound C112, 3-(2H-benzo[3,4-d]1,3-dioxolen-5-yl)-1-{1-[(4-fluorophenyl)carbonyl](4-piperidyl)}prop-2-yn-1-one] | < 100 |
| O=C(/C=C/c1ccccc1F)N1CCN(C(c2ccccc2)c2ccccc2)CC1 [Compound C113, (2E)-1-[4-(diphenylmethyl)piperazinyl]-3-(2-fluorophenyl)prop-2-en-1-one] | < 100 |
| O=C(C#Cc1ccc2c(c1)OCO2)N1CCN(C(=O)c2ccc(Cl)cc2)CC1 [Compound C114, 3-(2H-benzo[3,4-d]1,3-dioxolen-5-yl)-1-{4-[(4-chlorophenyl)carbonyl]piperazinyl}prop-2-yn-1-one] | < 100 |
| O=C(c1ccc(I)cc1)N1CCN(C(=O)c2cc3cc(Cl)ccc3[nH]2)CC1 [Compound C115, 5-chloroindol-2-yl 4-[(4-iodophenyl)carbonyl]piperazinyl ketone] | < 100 |
| O=C(C#Cc1ccccc1)N1CCN(C(=O)c2ccc(F)cc2)CC1 [Compound C116, 1-{4-[(4-fluorophenyl)carbonyl]piperazinyl}-3-phenylprop-2-yn-1-one] | < 100 |
| O=C(C#Cc1cccc(Cl)c1)N1CCN(C(=O)c2ccc(C(F)(F)F)cc2)CC1 [Compound C117, 3-(3-chlorophenyl)-1-(4-{[4-(trifluoromethyl)phenyl]carbonyl}piperazinyl)prop-2-yn-1-one] | < 100 |
| CC(C)CC(=O)N1CCN(C(=O)/C=C/c2ccc(Br)cc2)CC1 [Compound C118, (2E)-3-(4-bromophenyl)-1-[4-(3-methylbutanoyl)piperazinyl]prop-2-en-1-one] | < 100 |
| O=C(c1ccc(F)cc1)N1CCN(C(=O)c2cc3cc(Cl)ccc3[nH]2)CC1 [Compound C119, 5-chloroindol-2-yl 4-[(4-fluorophenyl)carbonyl]piperazinyl ketone] | < 100 |
| O=C(C#Cc1ccc2c(c1)OCO2)N1CCN(C(=O)c2ccc(Br)cc2)CC1 [Compound C120, 3-(2H-benzo[3,4-d]1,3-dioxolen-5-yl)-1-{4-[(4-bromophenyl)carbonyl]piperazinyl}prop-2-yn-1-one] | < 100 |
| Cc1ccc(C#CC(=O)N2CCN(Cc3ccc(F)cc3)CC2)cc1 [Compound C122, 1-{4-[(4-fluorophenyl)methyl]piperazinyl}-3-(4-methylphenyl)prop-2-yn-1-one] | < 100 |
| O=C(c1cc2ccccc2s1)N1CCN(C(c2ccccc2)c2ccccc2)CC1 [Compound C123, benzo[b]thiophen-2-yl 4-(diphenylmethyl)piperazinyl ketone] | < 100 |
| Cc1ccc(S(=O)(=O)N2CCN(C(=O)/C=C/c3ccc(F)cc3)CC2)cc1 [Compound C124, (2E)-3-(4-fluorophenyl)-1-{4-[(4-methylphenyl)sulfonyl]piperazinyl}prop-2-en-1-one] | < 100 |
| O=C(c1cnc2ccccc2c1)N1CCN(C(c2ccccc2)c2ccccc2)CC1 [Compound C125, 4-(diphenylmethyl)piperazinyl 3-quinolyl ketone] | < 100 |
| O=C(c1cc2cc(F)ccc2[nH]1)N1CCN(C(c2ccccc2)c2ccccc2)CC1 [Compound C126, 4-(diphenylmethyl)piperazinyl 5-fluoroindol-2-yl ketone] | < 100 |
| O=C(c1cccc(Cl)c1)N1CCN(C(=O)c2cc3cc(C(F)(F)F)ccc3[nH]2)CC1 [Compound C127, 4-[(3-chlorophenyl)carbonyl]piperazinyl 5-(trifluoromethyl)indol-2-yl ketone] | < 100 |
